Reference: patent EP4768499A1, “MACROCYCLIC PEPTIDE COMPOUND HAVING CELL MEMBRANE PERMEABILITY AND METABOLIC STABILITY, AND LIBRARY CONTAINING SAME” (Chugai Seiyaku Kabushiki Kaisha, priority 2023, dated 2025)
Starred links: 1 amine or outer side, 2 acyl side, 3 side chain; linkers in the order of their positions; H or OH if unused. Positions of bridges follow the written chain, without caps; N, C: chain ends. Non-standard residues stand in square brackets, D forms with d. Residues, ends and D or L forms follow the SMILES beside them. *: point of attachment. NMeF = CN[C@@H](Cc1ccccc1)C(=O)O; NMeGABA = CN(CCCC(=O)[*:2])[*:1]; NMeI = CC[C@H](C)[C@H](NC)C(=O)O; NMeT = CN[C@H](C(=O)O)[C@@H](C)O; hPhe = N[C@@H](CCc1ccccc1)C(=O)O; NMeβAla = CN(CCC(=O)[*:2])[*:1]; NMeL = CN[C@@H](CC(C)C)C(=O)O; NMeV = CN[C@H](C(=O)O)C(C)C; d(β3hA) = C[C@@H](N)CC(=O)O; NMeAbu = CC[C@H](NC)C(=O)O; NMeA = CN[C@@H](C)C(=O)O; Piperidide = C1CCN(*)CC1; dNMeA = CN[C@H](C)C(=O)O; Abu = CC[C@H](N)C(=O)O; βAla = NCCC(=O)O; Sar = CNCC(=O)O; tBu = CC(C)(C)*

Experiments:
[1] = Metabolic stability test: liver microsomal stability assay; assay type: in vitro ADME, mouse; conditions: mouse liver microsomes 0.5 mg protein/mL, compound 1 µM; for microsomal CLint at 1 µM: male, pH 7.4, presence of NADPH, read-out: Mouse Hepatic Microsome CLh,int NADPH(+); for Mouse Hepatic Microsome CLh,int NADPH(-): absence of NADPH
Method: Under the presence and absence of NADPH, a microsome solution prepared to a concentration of 0.5 mg protein/mL using 100 mM phosphate buffer (pH 7.4) with mouse liver microsomes (male, Corning Incorporated, USA) and the compound at a concentration of 1 µM were subjected to a metabolic reaction for 22 minutes, 44 minutes, or 66 minutes. Protein removal processing was performed over time using acetonitrile, and the remaining amount of unchanged compound was analyzed using LCMS to calculate the intrinsic hepatic clearance (CLh, int) (Table 6).

[2] = system: Caco-2 cells; assay: Membrane permeability test using Caco-2 cells with preincubation; assay type: in vitro ADME; conditions: Caco-2 cells, preincubation 20 to 24 hours; apical FaSSIF/HBSS 1% DMSO pH 6.0, basal HBSS 4% BSA pH 7.4; basal sample at 180 minutes
Method: (§1) The permeability coefficient (Caco-2 Papp (cm/sec)) is calculated using a numerical expression 1. [Expression 1] Papp = (1)/(C1 (0) × S) × (dQ)/(dt) [formula] dQ/dt represents the permeation rate of drug (the amount of drug appearing on the Basal side per unit time), S represents the total surface area of cells, and C1(0) represents the concentration of drug added on the Apical side.
(§2) Using a mixed medium of FaSSIF containing 1% DMSO and DMEM as the apical medium, and DMEM as the basal medium, Caco-2 cells and peptide compounds are preincubated for 20 to 24 hours under conditions of 5% CO2, 37°C, and 80 rpm. Afterward, the culture medium on the Apical side and the Basal side are aspirated and washed, the peptide compound was added to a FaSSIF/HBSS buffer solution containing 1% DMSO (1% DMSO) (pH 6.0) at the Apical side, a HBSS buffer solution containing 4% BSA (pH 7.4) was added to the Basal side, and measurement of membrane permeability is started. Each well is shaken under 5% CO2 at 37°C and 80 rpm, and at 180 minutes after the start of shaking, a sample on the Basal side is collected. The amount of peptide compounds in the sample was measured using LCMS, and the membrane permeability coefficient was calculated from the permeation amount (Table 7). When calculating the membrane permeability coefficient (Papp) from the permeation amount, the following expression can be used. Papp = (dQ)/(dt) × (1)/(C1 (0) × S) [formula]
(§3) dQ/dt represents the permeation rate of drug (the amount of drug appearing on the Basal side per unit time), C1(0) represents the concentration of drug added on the Apical side, and S represents the total surface area of cells.

[3] = as above; assay type: in vitro ADME; conditions: Caco-2; preincubation 20 to 24 hours; Apical FaSSIF/HBSS pH 6.0, Basal HBSS 4% BSA pH 7.4; 180 minutes; read-out: Caco2 Papp
Method: as §1, §2, §3

| Structure (SMILES) | microsomal CLint at 1 µM [1] | Mouse Hepatic Microsome CLh,int NADPH(-) [1] | Caco2 Papp (10^-6 cm/sec) [2] | Papp A→B [3] |
| --- | --- | --- | --- | --- |
| CC[C@@H]1NC(=O)[C@H](C)N(C)C(=O)[C@H](CC(C)C)N(C)C(=O)[C@H]([C@@H](C)O)N(C)C(=O)[C@H](CC(C)C)N(C)C(=O)CCNC(=O)[C@H](Cc2ccccc2)N(C)C(=O)CN(C)C(=O)C[C@@H](C(=O)N2CCCCC2)NC(=O)[C@H](C(C)C)N(C)C(=O)[C@H](C)N(C)C(=O)[C@@H]2CCCN2C(=O)[C@H](C(C)C)NC(=O)[C@H](Cc2ccccc2)N(C)C1=O [pd005] ([Sar][NMeF][βAla][NMeL][NMeT][NMeL][NMeA][Abu][NMeF]VP[NMeA][NMeV]D-Piperidide; lactam N-14) | 1.4 µL/min/mg | 1.1 µL/min/mg Protein | 0.05 10^-6 cm/sec | 0.05 ×10⁻⁶ cm/s |
| CC[C@@H]1NC(=O)[C@H](CC(C)C)N(C)C(=O)[C@H](CC(C)C)NC(=O)CN(C)C(=O)[C@H](C(C)C)NC(=O)[C@H](CC(C)C)N(C)C(=O)[C@H](C(C)C)NC(=O)[C@H](Cc2ccccc2)N(C)C(=O)[C@H](C)N(C)C(=O)[C@@H](C)NC(=O)C[C@@H](C)NC(=O)[C@H](C(C)C)N(C)C(=O)[C@H](CC)N(C)C(=O)[C@H](CCc2ccccc2)NC1=O [pd006] (cyclo([Abu][hPhe][NMeAbu][NMeV][d(β3hA)][dA][NMeA][NMeF]V[NMeL]V[Sar]L[NMeL])) | 51.4 µL/min/mg | 30.0 µL/min/mg Protein | <0.11 10^-6 cm/sec | < 0.11 ×10⁻⁶ cm/s |
| CC[C@H](C)[C@@H]1NC(=O)[C@H](CC(C)C)N(C)C(=O)[C@H](CC(C)C)NC(=O)[C@H](C)N(C)C(=O)C[C@@H](C)NC(=O)[C@H](CC(C)C)NC(=O)[C@H](CC(C)C)N(C)C(=O)CN(C)C(=O)[C@H](C(C)C)NC(=O)[C@H]([C@@H](C)CC)N(C)C(=O)[C@H](COC(C)(C)C)NC(=O)[C@H](CC(C)C)N(C)C(=O)CCNC(=O)[C@H](Cc2ccccc2)N(C)C1=O [pd007] (cyclo(I[NMeF][βAla][NMeL]S(tBu)[NMeI]V[Sar][NMeL]L[d(β3hA)][NMeA]L[NMeL])) | 40.8 µL/min/mg | 34.9 µL/min/mg Protein | 0.11 10^-6 cm/sec | 0.11 ×10⁻⁶ cm/s |
| CC[C@@H]1NC(=O)[C@H](Cc2ccccc2)N(C)C(=O)[C@H](COC(C)(C)C)NC(=O)[C@H](CC(C)C)N(C)C(=O)[C@H](C(C)C)NC(=O)CN(C)C(=O)[C@H]([C@@H](C)O)NC(=O)[C@H](CC(C)C)N(C)C(=O)[C@H](C(C)C)NC(=O)[C@H](Cc2ccccc2)N(C)C(=O)[C@H](C)N(C)C(=O)[C@@H](C)NC(=O)C[C@@H](C)NC(=O)[C@H](C(C)C)N(C)C1=O [pd008] (cyclo([Abu][NMeV][d(β3hA)][dA][NMeA][NMeF]V[NMeL]T[Sar]V[NMeL]S(tBu)[NMeF])) | 13.4 µL/min/mg | 11.8 µL/min/mg Protein | 0.04 10^-6 cm/sec | 0.04 ×10⁻⁶ cm/s |
| CC[C@H](C)[C@@H]1NC(=O)[C@H](CC(C)C)N(C)C(=O)[C@H](CC(C)C)NC(=O)[C@H](C)N(C)C(=O)C[C@@H](C)NC(=O)CN(C)C(=O)[C@H](CC(C)C)N(C)C(=O)[C@H]([C@@H](C)O)NC(=O)[C@H](C(C)C)NC(=O)[C@H]([C@@H](C)CC)N(C)C(=O)[C@H](COC(C)(C)C)NC(=O)[C@H](CC(C)C)N(C)C(=O)[C@H](C)NC(=O)[C@H](Cc2ccccc2)N(C)C1=O [pd009] (cyclo(A[NMeL]S(tBu)[NMeI]VT[NMeL][Sar][d(β3hA)][NMeA]L[NMeL]I[NMeF])) | 38.9 µL/min/mg | 42.4 µL/min/mg Protein | 0.13 10^-6 cm/sec | 0.13 ×10⁻⁶ cm/s |
| CC[C@@H]1NC(=O)[C@H](CC(C)C)N(C)C(=O)[C@H]([C@@H](C)CC)NC(=O)CN(C)C(=O)C[C@@H](C)NC(=O)[C@H](C(C)C)N(C)C(=O)[C@H](COC(C)(C)C)NC(=O)[C@H](CC(C)C)N(C)C(=O)[C@H](C)NC(=O)[C@H](Cc2ccccc2)N(C)C(=O)[C@H](CC(C)C)NC(=O)CN(C)C(=O)[C@H]([C@@H](C)O)NC(=O)[C@H](CC(C)C)N(C)C1=O [pd010] (cyclo(A[NMeL]S(tBu)[NMeV][d(β3hA)][Sar]I[NMeL][Abu][NMeL]T[Sar]L[NMeF])) | 59.7 µL/min/mg | 27.8 µL/min/mg Protein | 0.72 10^-6 cm/sec | 0.72 ×10⁻⁶ cm/s |
| CC[C@@H]1NC(=O)[C@H](CC(C)C)N(C)C(=O)[C@H]([C@@H](C)CC)NC(=O)CN(C)C(=O)C[C@@H](C)NC(=O)[C@H](C(C)C)N(C)C(=O)[C@H](COC(C)(C)C)NC(=O)[C@H](CC(C)C)N(C)C(=O)[C@H](Cc2ccccc2)N(C)C(=O)[C@H](C)NC(=O)[C@H](C(C)C)NC(=O)CN(C)C(=O)[C@H]([C@@H](C)O)NC(=O)[C@H](CC(C)C)N(C)C1=O [pd011] (cyclo(A[NMeF][NMeL]S(tBu)[NMeV][d(β3hA)][Sar]I[NMeL][Abu][NMeL]T[Sar]V)) | 27.3 µL/min/mg | 22.9 µL/min/mg Protein | 0.11 10^-6 cm/sec | 0.11 ×10⁻⁶ cm/s |
| CC[C@@H]1NC(=O)[C@H](Cc2ccccc2)N(C)C(=O)[C@H](COC(C)(C)C)NC(=O)[C@H](CC(C)C)N(C)C(=O)[C@H](C)N(C)C(=O)[C@@H]2CCCN2C(=O)[C@H]([C@@H](C)O)NC(=O)[C@H](CC(C)C)N(C)C(=O)[C@H]([C@@H](C)CC)NC(=O)[C@H](Cc2ccccc2)N(C)C(=O)[C@H](C(C)C)NC(=O)[C@@H](C)N(C)C(=O)C[C@@H](C)NC(=O)[C@H](C(C)C)N(C)C1=O [pd012] (cyclo([Abu][NMeV][d(β3hA)][dNMeA]V[NMeF]I[NMeL]TP[NMeA][NMeL]S(tBu)[NMeF])) | 41.3 µL/min/mg | 20.1 µL/min/mg Protein | 4.30 10^-6 cm/sec | 4.3 ×10⁻⁶ cm/s |
| CC[C@@H]1NC(=O)[C@H](Cc2ccccc2)N(C)C(=O)[C@H](C(C)C)NC(=O)[C@H](COC(C)(C)C)NC(=O)[C@H](C)N(C)C(=O)CN(C)C(=O)[C@H](CC(C)C)NC(=O)[C@@H]2CCCN2C(=O)[C@H](C(C)C)N(C)C(=O)[C@H](C)NC(=O)[C@H](CC)N(C)C(=O)[C@@H](C(C)C)NC(=O)C[C@@H](C(=O)N2CCCCC2)NC(=O)[C@H](C(C)C)N(C)C1=O [pd013] ([dV][NMeAbu]A[NMeV]PL[Sar][NMeA]S(tBu)V[NMeF][Abu][NMeV]D-Piperidide; lactam N-14) | 12.1 µL/min/mg | 6.1 µL/min/mg Protein | 0.04 10^-6 cm/sec | 0.04 ×10⁻⁶ cm/s |
| CC(C)C[C@@H]1NC(=O)[C@@H]2CCCN2C(=O)[C@H](C(C)C)N(C)C(=O)[C@H](C)NC(=O)[C@H](CC(C)C)N(C)C(=O)[C@@H](C(C)C)NC(=O)C[C@@H](C(=O)N2CCCCC2)NC(=O)[C@H](C(C)C)N(C)C(=O)[C@H](C)NC(=O)[C@H](CC(C)C)N(C)C(=O)[C@H](C(C)C)NC(=O)[C@H](COC(C)(C)C)NC(=O)[C@H](CC(C)C)N(C)C(=O)[C@H](Cc2ccccc2)N(C)C1=O [pd014] ([dV][NMeL]A[NMeV]PL[NMeF][NMeL]S(tBu)V[NMeL]A[NMeV]D-Piperidide; lactam N-14) | 31.1 µL/min/mg | 33.0 µL/min/mg Protein | <0.11 10^-6 cm/sec | < 0.11 ×10⁻⁶ cm/s |
| CC[C@H](C)[C@@H]1NC(=O)[C@H](C)NC(=O)[C@H](CC(C)C)N(C)C(=O)[C@H](COC(C)(C)C)NC(=O)[C@H](CC(C)C)N(C)C(=O)[C@@H]2CCCN2C(=O)[C@H](Cc2ccccc2)NC(=O)CCN(C)C(=O)[C@H](CC(C)C)N(C)C(=O)CCCN(C)C(=O)C[C@@H](C(=O)N2CCCCC2)NC(=O)[C@H](Cc2ccccc2)N(C)C(=O)[C@H](CC(C)C)NC(=O)[C@H](CC)N(C)C1=O [pd017] ([NMeGABA][NMeL][NMeβAla]FP[NMeL]S(tBu)[NMeL]AI[NMeAbu]L[NMeF]D-Piperidide; lactam N-14) | 39.4 µL/min/mg | 40.1 µL/min/mg Protein | 0.09 10^-6 cm/sec | 0.09 ×10⁻⁶ cm/s |
